Results: patent publication US9957253B2, “Triaminopyrimidine compounds useful for preventing or treating malaria” (MMV MEDICINES FOR MALARIA VENTURE, priority 2014, dated 2018)
pIC50: −log10 of the molar value. Counter-ions that a name gives are not always drawn. Like-named read-outs stand apart in the source and are kept apart here.

Assays:
hepatocytes = experiment: Metabolic stability assay (hepatocyte Clint), human; assay type: in vitro ADME; conditions: 1 μM compound
Experimental: Metabolic Stability Assay (Rat/Human Hepatocyte Clint)
Viability of cryopreserved hepatocytes was determined using trypan blue and the cell concentration was adjusted to 10^6 cells per mL with Leibovitz L-15 Buffer. 1 μM compound (in Acetonitrile; 0.01% DMSO) was incubated with 500 μL of hepatocytes (1 million cells per mL) in a NUNC plate. Reaction was stopped at different time points (0, 5, 15, 30, 60, 90 and 120 min) by addition of 3 volumes of chilled acetonitrile to 100 μL of reaction mixture and centrifuged at 4° C. for 15 min. Supernatants were analyzed using LC-MS/MS for substrate depletion.

[1] = Blood:Plasma (BP) ratio, human; assay type: in vitro ADME
human CYP 1A2 = target: T1, human CYP 1A2 (Homo sapiens, UniProt P05177); experiment: CYP inhibition assay, CYP 1A2; assay type: in vitro ADME
T1 sequence (P05177 1-516): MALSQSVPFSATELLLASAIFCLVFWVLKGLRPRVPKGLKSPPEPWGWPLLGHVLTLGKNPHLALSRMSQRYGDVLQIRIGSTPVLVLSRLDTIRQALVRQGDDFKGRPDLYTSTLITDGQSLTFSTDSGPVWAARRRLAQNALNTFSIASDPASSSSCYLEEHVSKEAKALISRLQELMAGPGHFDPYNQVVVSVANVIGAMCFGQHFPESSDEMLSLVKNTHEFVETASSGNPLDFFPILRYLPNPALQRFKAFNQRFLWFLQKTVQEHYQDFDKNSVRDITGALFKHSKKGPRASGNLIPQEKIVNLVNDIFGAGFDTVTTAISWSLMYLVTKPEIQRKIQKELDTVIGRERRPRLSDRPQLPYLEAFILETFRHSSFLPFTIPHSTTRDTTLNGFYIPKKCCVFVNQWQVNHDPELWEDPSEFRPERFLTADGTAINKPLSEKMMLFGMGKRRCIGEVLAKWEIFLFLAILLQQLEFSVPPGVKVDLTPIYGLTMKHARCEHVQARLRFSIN
Experimental: (§1) This study was conducted using specific substrates for 5 major human CYP isozymes. These substrates were used as a cocktail (phenacetin, diclofenac, S-mephenytoin, bufuralol and midazolam which are predominantly metabolised by CYP 1A2, 2C9, 2C19, 2D6 and 3A4/5, respectively) at concentrations equivalent to their respective Km values. LC-MS-MS (MRM mode) was used to follow the formation of the CYP specific metabolites. A decrease in the formation of the metabolites in peak area to vehicle control was used to calculate the IC50 value. […] Test compound was used at 6 different concentrations ([…]) to estimate IC50.
(§2) The incubation was carried out in 96 deep well plates. Mixture of 180 μL of 20 mg/mL HLM and 90 μL of substrate cocktail solution was added to 15840 μL of phosphate buffer and 179 μL of this mixture was mixed with 1 μL of the test compound, inhibitor cocktail solution or vehicle in each well. The final concentration of DMSO:ACN in the assay mix was 0.3:0.7% v/v. The incubation plate was placed into the water bath and pre-warmed at 37° C. for 5 min before the reactions were started by the addition of 20 μL of 10 mmol/L NADPH solution in phosphate buffer. After the addition of NADPH, the incubation plate was incubated at 37° C. for a further 5 min. The reaction was quenched by the addition of 1 volume (200 μL) of cold ACN containing 3% formic acid and 40 nmol/L verapamil. The plates were kept on ice for 20 min and then centrifuged at 4000 rpm for 30 min to precipitate protein. The supernatant 180 μL was transferred to the analysis plate for LC/MS/MS analysis.

[2] = Prediction of human PK parameters (well stirred model); conditions: from human hepatocyte Clint and fu
Text: Prediction of Human Pharmacokinetic (PK) Parameters Well stirred model was used for predicting human CL using human hepatocyte Clint and free fraction (fu) in human plasma. Liver blood flow rates, liver weights, hepatocellularity and in vitro in vivo correlation/extrapolation (IVIVC/E) templates routinely employed (Smith et al., Pharmacokinetics and Metabolism in Drug Design, Methods and Principles in Medicinal Chemistry Volume 13, 2004, Wiley-VCH, Weinheim, Germany) were used for prediction.

Plasmodium berghei = experiment: In vivo efficacy in the mouse malaria model (four day suppressive test); conditions: P. berghei infected mice, growth of parasites in blood
Experimental: In Vivo Efficacy in the Mouse Malaria Model In vivo efficacy against blood stages was measured in mice infected with Plasmodium berghei after four (once daily) days of dosing by oral route. Detailed protocol for this four day suppressive test is described in Fidock et al 2004, Nature Reviews Drug Discovery (3), p 509.

[3] = Prediction of hepatic blood clearance (well stirred model), rat
[4] = Caco-2 permeability assay; assay type: in vitro ADME; conditions: human; Caco-2, 10 μM, pH 6.5/7.4
Experimental: Caco-2 Permeability Assay
Permeability in a Caco-2 monolayer was determined at 10 μM. The Caco-2 cell monolayers were washed once with HBSS. TEER was measured both before and after performing all the transport experiments. Papp was measured in apical A to basolateral B direction. Transport buffer, 800 μL (HBSS, pH 7.4) was first dispensed to the basal side of the monolayer. The assay was then initiated by adding 200 μL of compound solution to the apical side (all test compounds were diluted in HBSS, pH 6.5, with 1% DMSO as co-solvent). Two μL and 200 μL of samples were withdrawn, before and at 45 and 120 min post addition of test compound, from the apical donor compartment and the basolateral receiver compartment, respectively. The transwell plates were incubated at 37° C. on a shaker at 480 rpm inside the incubator. All samples were immediately analysed by LC-MS/MS. A passive permeability was determined by complete chemical inhibition of the three major efflux transporters, ABCB1 (P-gp), ABCG2 (BCRP) and ABCC2 (MRP2), in Caco-2 cells using a cocktail of chemical inhibitors: quinidine (P-gp), sulfasalazine (BCRP) and benzbromarone (MRP2).
The apparent permeability coefficient (Papp) was calculated according to the following equation: Papp=(ΔQ/Δt)/(A×CD)[cm/s] (1) where (ΔQ/Δt) […] is the cumulative amount of test compound transported over time to the basolateral (receiver) side, A is the surface area of the monolayer membrane (cm^2) and CD is the average drug concentration in the donor chamber over the period for which (ΔQ/Δt) was determined.

human CYP 2C19 = target: T2, human CYP 2C19 (Homo sapiens, UniProt P33261); experiment: CYP inhibition assay, CYP 2C19; assay type: in vitro ADME
T2 construct: Mixture of 180 μL of 20 mg/mL HLM and 90 μL of substrate cocktail solution; from tissue; host or cells: human liver microsomes (HLM)
T2 sequence (P33261 whole entry): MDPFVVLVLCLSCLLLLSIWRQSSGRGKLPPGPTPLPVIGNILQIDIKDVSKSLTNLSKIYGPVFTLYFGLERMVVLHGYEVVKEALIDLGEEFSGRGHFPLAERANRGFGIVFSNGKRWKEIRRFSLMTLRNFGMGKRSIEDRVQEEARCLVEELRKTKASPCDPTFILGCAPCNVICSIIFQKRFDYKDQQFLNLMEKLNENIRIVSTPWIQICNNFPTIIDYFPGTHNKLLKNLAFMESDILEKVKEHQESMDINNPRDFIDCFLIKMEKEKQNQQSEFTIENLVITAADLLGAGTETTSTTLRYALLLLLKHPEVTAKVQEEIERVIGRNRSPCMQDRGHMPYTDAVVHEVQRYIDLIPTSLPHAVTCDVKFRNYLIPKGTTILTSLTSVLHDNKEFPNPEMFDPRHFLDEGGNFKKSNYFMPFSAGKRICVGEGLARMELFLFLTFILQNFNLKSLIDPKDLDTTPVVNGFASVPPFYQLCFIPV
Experimental: as §1, §2

human CYP 2D6 = target: T3, human CYP 2D6 (Homo sapiens, UniProt P10635); experiment: Time dependent CYP inhibition assay, CYP 2D6; assay type: in vitro ADME
T3 construct: Mixture of 180 μL of 20 mg/mL HLM and 90 μL of substrate cocktail solution; from tissue; host or cells: human liver microsomes (HLM)
T3 sequence (P10635 whole entry): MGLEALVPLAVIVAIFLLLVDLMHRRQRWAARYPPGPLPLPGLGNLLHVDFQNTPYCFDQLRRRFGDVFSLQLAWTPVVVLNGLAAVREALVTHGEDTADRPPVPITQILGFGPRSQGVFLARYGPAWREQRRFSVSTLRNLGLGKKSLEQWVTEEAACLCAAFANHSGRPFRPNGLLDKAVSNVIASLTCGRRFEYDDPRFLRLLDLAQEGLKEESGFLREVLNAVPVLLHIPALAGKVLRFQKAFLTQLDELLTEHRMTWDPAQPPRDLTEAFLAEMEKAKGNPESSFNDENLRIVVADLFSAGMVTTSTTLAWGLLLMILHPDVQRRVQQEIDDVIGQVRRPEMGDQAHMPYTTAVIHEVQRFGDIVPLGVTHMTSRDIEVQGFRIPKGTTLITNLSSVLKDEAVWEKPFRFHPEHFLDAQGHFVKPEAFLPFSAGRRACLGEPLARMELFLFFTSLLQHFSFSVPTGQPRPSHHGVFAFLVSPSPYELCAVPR

[5] = human liver microsomes, substrate cocktail, read-out: IC50 CYP 1A2
[6] = 3 mg/kg oral once daily for four days
[7] = 10 mg/kg oral once daily for four days
[8] = 30 mg/kg oral once daily for four days
[9] = human liver microsomes, substrate cocktail, read-out: IC50 CYP 2C19

SMILES | Hep. Clint (hepatocytes) | BP ratio [1] | pIC50 (human CYP 1A2; [5]) | Predicted CLh blood [2] | % Inhibition (Plasmodium berghei; [6]) | % Inhibition (Plasmodium berghei; [7]) | % Inhibition (Plasmodium berghei; [8]) | Predicted CLh blood [3] | Papp A→B at 120 min, 10 μM [4] | pIC50 (human CYP 2C19; [9]) | pIC50 (human CYP 2D6) | % Inhibition (Plasmodium berghei; 15 mg/kg oral once daily for four days) | pIC50 (human CYP 1A2) | pIC50 (human CYP 2C19)
Cc1nc(Nc2ncc(N3CCN(C)[C@H](C)C3)c(Nc3cc(C)n(C)n3)n2)cc(C2CC2)c1F [Example 13, (R)—N2-(4-cyclopropyl-5-fluoro-6-methylpyridin-2-yl)-N4-(1,5-dimethyl-1H-pyrazol-3-yl)-5-(3,4-dimethylpiperazin-1-yl)pyrimidine-2,4-diamine] | 3.1 μl/min/1E6 | 1.1 | < 4.52 | 4.80 mL/min/kg | 0% | 42% | 100% | 18.80 mL/min/kg | 19.5 ×10⁻⁶ cm/s | < 4.52 | < 4.25 |  |  | 
Cc1nc(Nc2ncc(N3CCN[C@H](C)C3)c(Nc3cnn(C)n3)n2)cc(C2CC2)c1Cl [Example 10, (R)—N2-(5-chloro-4-cyclopropyl-6-methylpyridin-2-yl)-N4-(2-methyl-2H-1,2,3-triazol-4-yl)-5-(3-methylpiperazin-1-yl)pyrimidine-2,4-diamine dihydochloride] | 1.8 μl/min/1E6 | 1.8 | < 4.52 | 3.10 mL/min/kg |  | 60% | 100% | 16.10 mL/min/kg | 3.8 ×10⁻⁶ cm/s | < 4.52 | < 4.25 | 75% |  | 
CCc1cc(Nc2ncc(N3CCN[C@H](C)C3)c(Nc3cc(C)n(C)n3)n2)nc(C)c1F [Example 7, (R)—N4-(1,5-dimethyl-1H-pyrazol-3-yl)-N2-(4-ethyl-5-fluoro-6-methylpyridin-2-yl)-5-(3-methylpiperazin-1-yl)pyrimidine-2,4-diamine dihydrochloride] | 2.7 μl/min/1E6 | 1.3 |  | 3.30 mL/min/kg | 6% | 28% | 100% | 24.20 mL/min/kg | 5 ×10⁻⁶ cm/s |  | < 4.25 |  | < 4.52 | < 4.52
